This is an account of results in patent US11345711B2, “8,9-dihydroimidazo[1,2-a]pyrimido[5,4-e]pyrimidin-5(6H)-ones” (IMPACT THERAPEUTICS (SHANGHAI), INC, priority 2016, dated 2022).

The target in test [1] is Wee1 (h) (Homo sapiens, UniProt P30291). The test is described as follows: Wee1 kinase (h) detection method, [γ-33P]-ATP filter assay. In kind it is biochemical. How it is done: Determination of the inhibitory effect of 6-(2-chlorophenyl)-2-((4-(4-methylpiperazin-1-yl)phenyl)amino)-8,9-dihydroimidazo[1,2-a]pyrimido[5,4-e]pyrimidin-5(6H)-one and Analogs on the Enzyme Activity of Wee1 Kinase by Using the Wee1 Kinase (h) Detection Method
Then the stock solution of all compounds under test with 50× concentration in 100% DMSO was added to make the final concentration of 10/1/0.1/0.01 μM, and then mixed the mixture well. The reaction is initiated by the addition of the Mg/ATP mix. After incubation for 40 minutes at room temperature, the reaction is stopped by the addition of phosphoric acid to a concentration of 0.5%. […] Each compound sample is duplicated in duplicate. The negative control was lack of all the components of Wee1 enzyme, and the positive was addition of 30% phosphoric acid to terminate the reaction. The Wee1 inhibitor AZD1775 was detected at 10 μM at the same experiment condition.

In test [2] the test system is LoVo cells. Put plainly: MTT based cell viability assay on LoVo cells. Conditions: Homo sapiens, LoVo, 72 h, 3 d, read-out: IC50, growth inhibition of LoVo cells. How it is done:
Determination of the cell growth inhibiting activity of 6-(2-chlorophenyl)-2-((4-(4-methylpiperazin-1-yl)phenyl)amino)-8,9-dihydroimidazo[1,2-a]pyrimido[5,4-e]pyrimidin-5(6H)-one and analogs on LoVo cells using a MTT based cell viability assay
(§1) The thawed LoVo cells were cultured and passaged to the third generation, and the growth state was good and the confluence was about 90%, which began to be used in the experiment. The LoVo cells were digested with trypsin, centrifuged at 800 rpm for 5 min, the supernatant was discarded, resuspended with fresh culture medium, and counted. 6000 Cells are seeded to each well of a 96-well plate. The cells are incubated at 37° C. in a 5% CO2 cell culture incubator overnight. The tested sample (including the tested compound and the reference compound AZD1775) was diluted continuously to 8 concentrations (the last concentration was negative control of DMSO) with a 1:3 and 1:10 dilution in DMSO respectively: 10 μM, 3.3 μM, 1 μM, 0.33 μM, 0.1 μM, 0.033 μM, 0.01 μM, 0 μM (the final concentration of DMSO was 1%). 5 μL of each concentration was added to 120 μL of culture medium (25 times diluted), and the mixture was shaken well. The overnight cells were taken and the culture medium was removed, 195 μL of fresh culture medium was added to each well, and 5 μL of diluted culture medium containing the corresponding concentration of the tested sample was added respectively, and the culture plate was then placed in the 5% CO2 cell culture incubator at 37° C. for 3 d. After removing the original solution and adding 100 μL of fresh serum-free DMEM culture medium containing MTT (0.5 mg/mL) per well, the culture was continued. The original solution was removed after 4 hrs and 100 μl DMSO was added to each well. The 96-well cell culture plates were shaken away from light for 10 min and readed in a multifunctional reader at 552/630/690 nm to give absorption values (OD values). The data were analyzed using a commercial graphic software (Graph Pad Prism 5.0) and the inhibitory activity of the compound on cell proliferation was plotted in terms of cell survival and compound concentration. The IC50 values were fitted by the S-shaped dose-response curve equation as follows: Y=100/(1+10^(Log C-Log IC50)), where C was the concentration of testing compounds.

Test [3] concerns NCI-H1299 cells. Put plainly: MTT based cell viability assay on NCI-H1299 cells. Conditions: Homo sapiens, NCI-H1299 cells, read-out: IC50, growth inhibition of NCI-H1299 cells. As for the experimental part: Determination of the cell growth inhibiting activity of 6-(2-chlorophenyl)-2-((4-(4-methylpiperazin-1-yl)phenyl)amino)-8,9-dihydroimidazo[1,2-a]pyrimido[5,4-e]pyrimidin-5(6H)-one and analogs on NCI-H1299 cells using a MTT based cell viability assay
as §1, with “NCI-H1299” for “LoVo”, “group,” for “medium,”, “1000” for “6000”, “1‰).” for “1%).”, “C−Log” for “C-Log”

Some results are limits rather than exact numbers.

Sequence of Wee1 (h) (P30291 whole entry): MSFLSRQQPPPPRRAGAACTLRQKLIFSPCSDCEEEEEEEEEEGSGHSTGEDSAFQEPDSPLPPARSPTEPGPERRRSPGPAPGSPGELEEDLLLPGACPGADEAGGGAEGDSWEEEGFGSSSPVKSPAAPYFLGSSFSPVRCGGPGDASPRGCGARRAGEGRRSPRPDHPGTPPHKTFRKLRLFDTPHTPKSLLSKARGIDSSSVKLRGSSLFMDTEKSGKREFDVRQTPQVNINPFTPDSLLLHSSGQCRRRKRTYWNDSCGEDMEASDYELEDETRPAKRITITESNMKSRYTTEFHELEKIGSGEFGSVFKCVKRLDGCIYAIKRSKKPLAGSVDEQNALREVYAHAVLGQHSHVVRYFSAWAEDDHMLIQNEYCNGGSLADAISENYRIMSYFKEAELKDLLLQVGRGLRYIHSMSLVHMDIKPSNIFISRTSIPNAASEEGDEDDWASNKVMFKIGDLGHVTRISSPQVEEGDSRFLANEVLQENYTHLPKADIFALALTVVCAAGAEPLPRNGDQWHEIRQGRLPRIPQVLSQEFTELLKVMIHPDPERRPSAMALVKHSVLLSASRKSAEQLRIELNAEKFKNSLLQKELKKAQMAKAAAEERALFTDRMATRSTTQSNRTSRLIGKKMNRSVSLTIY

For `CN1Cc2cc(Nc3ncc4c(n3)N3CCN=C3N(c3c(F)cccc3Cl)C4=O)ccc2C2(CC2)C1` [Example 10, 6-(2-Chloro-6-fluorophenyl)-2-((2′-methyl-2′,3′-dihydro-1′H-spiro[cyclopropane-1,4′-isoquinolin]-7′-yl)amino)-8,9-dihydroimidazo[1,2-a]pyrimido[5,4-e]pyrimidin-5(6H)-one], the “Inh. (%) of Wee1 kinase enzyme activity” value was found to be 46% in test [1] (C 0.01 μm compound), 93% in test [1] (C 0.1 μm compound) and 98% in test [1] (C 1 μm compound). Further, the IC50 in test [2] is 88.7 nM; in test [3], 172 nM.

For `CC(=O)N1Cc2cc(Nc3ncc4c(n3)N3CCN=C3N(c3c(F)cccc3Cl)C4=O)ccc2C2(CC2)C1` [Example 11, 6-(2-Chloro-6-fluorophenyl)-2-((2′-acetyl-2′,3′-dihydro-1′H-spiro[cyclopropane-1,4′-isoquinolin]-7′-yl)amino)-8,9-dihydroimidazo[1,2-a]pyrimido[5,4-e]pyrimidin-5(6H)-one], the entries for the “Inh. (%) of Wee1 kinase enzyme activity” value in test [1] (C 0.01 μm compound), in test [1] (C 0.1 μm compound) and in test [1] (C 1 μm compound) were 23%, 85% and 97%, respectively. The IC50 was 101 nM in test [2] and 705 nM in test [3].

Regarding `CN1CCc2ccc(Nc3ncc4c(n3)N3CCN=C3N(c3c(Cl)cccc3Cl)C4=O)cc2C1` [Example 12, 6-(2,6-Dichlorophenyl)-2-((2-methyl-1,2,3,4-tetrahydroisoquinolin-7-yl)amino)-8,9-dihydroimidazo[1,2-a]pyrimido[5,4-e]pyrimidin-5(6H)-one], the entries for the “Inh. (%) of Wee1 kinase enzyme activity” value in test [1] (C 0.01 μm compound), in test [1] (C 0.1 μm compound) and in test [1] (C 1 μm compound) were 32%, 83% and 98%, respectively. In addition, the figures for the IC50 in test [2] and in test [3] were 219 nM and 232 nM, respectively.

On to `CN1Cc2cc(Nc3ncc4c(n3)N3CCN=C3N(c3c(Cl)cccc3Cl)C4=O)ccc2C(C)(C)C1` [Example 13, 6-(2,6-Dichlorophenyl)-2-((2,4,4-trimethyl-1,2,3,4-tetrahydroisoquinolin-7-yl)amino)-8,9-dihydroimidazo[1,2-a]pyrimido[5,4-e]pyrimidin-5(6H)-one], for which the “Inh. (%) of Wee1 kinase enzyme activity” value in test [1] (C 0.01 μm compound) is recorded as 29%; in test [1] (C 0.1 μm compound), 87%; in test [1] (C 1 μm compound), 100%. Also, the IC50 in test [2] was 76.7 nM; in test [3], 101 nM.

As to `CN1Cc2cc(Nc3ncc4c(n3)N3CCN=C3N(c3c(Cl)cccc3Cl)C4=O)ccc2C2(CC2)C1` [Example 14, 6-(2,6-Dichlorophenyl)-2-((2′-methyl-2′,3′-dihydro-1′H-spiro[cyclopropane-1,4′-isoquinolin]-7′-yl)amino)-8,9-dihydroimidazo[1,2-a]pyrimido[5,4-e]pyrimidin-5(6H)-one], the “Inh. (%) of Wee1 kinase enzyme activity” value in test [1] (C 0.01 μm compound) stood at 12%; in test [1] (C 0.1 μm compound) it was 86%; in test [1] (C 1 μm compound) it was 92%. The IC50 in test [2] amounted to 149 nM; in test [3], 98.7 nM.

In the case of `Cc1cccc(C)c1N1C(=O)c2cnc(Nc3ccc4c(c3)CN(C)CC4)nc2N2CCN=C21` [Example 15, 6-(2,6-Dimethylphenyl)-2-((2-methyl-1,2,3,4-tetrahydroisoquinolin-7-yl)amino)-8,9-dihydroimidazo[1,2-a]pyrimido[5,4-e]pyrimidin-5(6H)-one], the “Inh. (%) of Wee1 kinase enzyme activity” value in test [1] (C 1 μm compound) was determined as 89%. Further, the IC50 turned out to be 1730 nM in test [2] and 966 nM in test [3].

With `Cc1cccc(C)c1N1C(=O)c2cnc(Nc3ccc4c(c3)CN(C)CC4(C)C)nc2N2CCN=C21` [Example 16, 6-(2,6-Dimethylphenyl)-2-((2,4,4-trimethyl-1,2,3,4-tetrahydroisoquinolin-7-yl)amino)-8,9-dihydroimidazo[1,2-a]pyrimido[5,4-e]pyrimidin-5(6H)-one], the “Inh. (%) of Wee1 kinase enzyme activity” value is given as 15% in test [1] (C 0.01 μm compound), 59% in test [1] (C 0.1 μm compound) and 98% in test [1] (C 1 μm compound). The IC50 in test [2] amounted to 4760 nM; in test [3] it was 617 nM.

On to `Cc1cccc(C)c1N1C(=O)c2cnc(Nc3ccc4c(c3)CN(C)CC43CC3)nc2N2CCN=C21` [Example 17, 6-(2,6-Dimethylphenyl)-2-((2′-methyl-2′,3′-dihydro-1′H-spiro[cyclopropane-1,4′-isoquinolin]-7′-yl)amino)-8,9-dihydroimidazo[1,2-a]pyrimido[5,4-e]pyrimidin-5(6H)-one], for which the “Inh. (%) of Wee1 kinase enzyme activity” value in test [1] (C 1 μm compound) is listed as 87%. The figures for the IC50 in test [2] and in test [3] were 290 nM and 447 nM, respectively.

On to `CC(C)N1C(=O)c2cnc(Nc3ccc(N4CCN(C)CC4)cc3)nc2N2CCN=C21` [Example 18, 6-Isopropyl-2-((4-(4-methylpiperazin-1-yl)phenyl)amino)-8,9-dihydroimidazo[1,2-a]pyrimido[5,4-e]pyrimidin-5(6H)-one], for which the “Inh. (%) of Wee1 kinase enzyme activity” value in test [1] (C 1 μm compound) was determined as 14%. The IC50 in test [2] is above 1000 nM; in test [3] it was above 10000 nM.

Take `CN1CCN(c2ccc(Nc3ncc4c(n3)N3CCN=C3N(C(C)(C)C)C4=O)cc2)CC1` [Example 19, 6-(Tert-butyl)-2-((4-(4-methylpiperazin-1-yl)phenyl)amino)-8,9-dihydroimidazo[1,2-a]pyrimido[5,4-e]pyrimidin-5(6H)-one]: in test [1] (C 1 μm compound), the “Inh. (%) of Wee1 kinase enzyme activity” value was determined as 7%. Besides, the figures for the IC50 in test [2] and in test [3] were above 100000 nM and above 10000 nM, respectively.

With `CN1CCN(c2ccc(Nc3ncc4c(n3)N3CCN=C3N(C3CC3)C4=O)cc2)CC1` [Example 20, 6-Cyclopropyl-2-((4-(4-methylpiperazin-1-yl)phenyl)amino)-8,9-dihydroimidazo[1,2-a]pyrimido[5,4-e]pyrimidin-5(6H)-one], the “Inh. (%) of Wee1 kinase enzyme activity” value in test [1] (C 1 μm compound) came to 9%. Also, the results for the IC50 in test [2] and in test [3] were above 100000 nM and above 10000 nM, respectively.

Regarding `CN1CCN(c2ccc(Nc3ncc4c(n3)N3CCN=C3N(C3CCCCC3)C4=O)cc2)CC1` [Example 21, 6-Cyclohexyl-2-((4-(4-methylpiperazin-1-yl)phenyl)amino)-8,9-dihydroimidazo[1,2-a]pyrimido[5,4-e]pyrimidin-5(6H)-one], the “Inh. (%) of Wee1 kinase enzyme activity” value in test [1] (C 1 μm compound) is 9%. The IC50 in test [2] amounted to 2130 nM; in test [3], 3300 nM.
